Measured values taken from patent EP1561465A2, “Methods of use of fluoroquinolone compounds against bacteria” (LG Life Sciences, Ltd., priority 1999, dated 2001).
≈ marks a conversion by molar mass, not a printed value. Where two headings read alike, the source gives them in different places.

Legend:
Type in all cases: cell-based
Klebsiella oxytoca = test: MIC by NCCLS broth microdilution, 1100 Japanese clinical isolates 1997-1998; settings: Klebsiella oxytoca (n=40)
Klebsiella pneumoniae [1] = test: MIC by agar dilution (NCCLS), 322 nosocomial Gram negative isolates, Athens 1998; settings: n = 56 isolates
Enterococcus faecium = test: MIC by NCCLS broth microdilution, 1100 Japanese clinical isolates 1997-1998; settings: for MIC: Enterococcus faecium
Pseudomonas aeruginosa = test: MIC by agar dilution (NCCLS), 322 nosocomial Gram negative isolates, Athens 1998; settings: n = 57 isolates
Morganella morganii = test: MIC by NCCLS broth microdilution, 1100 Japanese clinical isolates 1997-1998; settings: Morganella morganii (n=40)
Proteus mirabilis = test: MIC by agar dilution (NCCLS), 322 nosocomial Gram negative isolates, Athens 1998; settings: Proteus mirabilis; n = 57 isolates
Aeromonas spp. [2] = test: MIC by agar dilution (NCCLS M7-A4), 288 enteropathogenic isolates, gemifloxacin and 15 other antimicrobials; settings: Aeromonas spp. N= 16
P. aeruginosa = test: MIC by two-fold serial agar dilution, quinolone-resistant strains; settings: Pseudomonas aeruginosa
Citrobacter freundii = test: MIC by NCCLS broth microdilution, 1100 Japanese clinical isolates 1997-1998
Proteus vulgaris = test: as above
Shigella spp. = test: as above; settings: Shigella spp. (n=34)
[3] = test system: Staphylococcus epidermidis; test: as above; settings: for MIC50 / MIC90: Staphylococcus epidermidis
Aeromonas spp. [4] = test: MIC by agar dilution (NCCLS M7-A4), 288 enteropathogenic isolates, eight quinolones; settings: Aeromonas spp. (n = 16)
Escherichia coli = test: MIC by NCCLS broth microdilution, 1100 Japanese clinical isolates 1997-1998; settings: for MIC50 / MIC90: Escherichia coli
Salmonella spp. [5] = test: MIC by agar dilution (NCCLS M7-A4), 288 enteropathogenic isolates, eight quinolones; settings: for MIC: ciprofloxacin MIC ≥[…], read-out: MIC
Moraxella catarrhalis = test: MIC by two-fold serial agar dilution, Sensitivity Disk agar-N (Kitasato isolates); settings: Moraxella catarrhalis (22)
[6] = test system: Streptococcus pneumoniae and Haemophilus influenzae; test: MIC by broth microdilution (NCCLS), all isolates pooled
Staphylococcus aureus [7] = test: microbe, parasite or virus in culture; settings: for MIC90: read-out: MIC90
Salmonella spp. [8] = test: MIC by NCCLS broth microdilution, 1100 Japanese clinical isolates 1997-1998; settings: Salmonella spp. (n=29)
[9] = MIC by agar dilution, Brucella HK agar, 491 anaerobic clinical isolates; settings: clinical isolates of Bacteroides spp., Prevotella bivia and other Prevotella spp.
Streptococcus pyogenes = test: MIC by NCCLS broth microdilution, 1100 Japanese clinical isolates 1997-1998
Hafnia alvei = test: MIC by agar dilution (NCCLS M7-A4), 288 enteropathogenic isolates, gemifloxacin and 15 other antimicrobials; settings: Hafnia alvei N= 32
Haemophilus influenzae = test: MIC by broth microdilution (NCCLS), dried MicroScan panels, clinical isolates 1998-1999; settings: for MIC90: Haemophilus influenzae
Klebsiella pneumoniae [10] = test: MIC by NCCLS reference broth microdilution, 450 respiratory tract pathogens; settings: for MIC50 / MIC90: Klebsiella pneumoniae
Staphylococcus aureus [11] = test: MIC by agar macrodilution (NCCLS), 373 Gram positive isolates, Athens 1998; settings: Methicillin-susceptible Staphylococcus aureus (n = 85)
Yersinia enterocolitica = test: MIC by agar dilution (NCCLS M7-A4), 288 enteropathogenic isolates, gemifloxacin and 15 other antimicrobials; settings: Yersinia enterocolitica N= 22
[12] = Staphylococcus epidermidis oxacillin resistant (n=43)
[13] = Staphylococcus epidermidis oxacillin susceptible (n=35)
[14] = Escherichia coli ciprofloxacin susceptible (n=37)
[15] = Staphylococcus aureus, Methicillin-susceptible (9)
[16] = 24 h, read-out: MIC (mg/L) Range
[17] = Haemophilus influenzae (300 isolates)
[18] = extended spectrum β-lactamase negative (n = 30)
[19] = extended spectrum β-lactamase positive (n = 20)

## N[C@@H]1[C@H]2CN(c3nc4c(cc3F)c(=O)c(C(=O)O)cn4-c3ccc(F)cc3F)C[C@@H]12 [Trovafloxacin, trovafloxacin]
Klebsiella oxytoca
  MIC50: 0.032 µg/mL (≈ 0.0769 µM)
  MIC90: 8 µg/mL (≈ 19.2 µM)
  MIC Range: ≤0.008 to 32 µg/mL
Klebsiella pneumoniae [1]; Klebsiella pneumoniae
  MIC50: 0.125 µg/mL (≈ 0.3 µM)
  MIC90: 1 µg/mL (≈ 2.4 µM)
Klebsiella pneumoniae [1]
  MIC Range: ≤0.03 to 16 µg/mL
Enterococcus faecium; Enterococcus faecium (n=39)
  MIC50: 16 µg/mL (≈ 38.4 µM)
  MIC90: 64 µg/mL (≈ 154 µM)
  MIC Range: 0.25 to 64 µg/mL
Enterococcus faecium; Enterococcus faecium (vanA) vancomycin resistant, strain TMS1
  MIC: 8 µg/mL (≈ 19.2 µM)
Enterococcus faecium; Enterococcus faecium (vanA) vancomycin resistant, strain TMS2
  MIC: 1 µg/mL (≈ 2.4 µM)
Enterococcus faecium; Enterococcus faecium (vanA) vancomycin resistant, strain TMS3
  MIC: 8 µg/mL (≈ 19.2 µM)
Enterococcus faecium; Enterococcus faecium (vanA) vancomycin resistant, strain TMS4
  MIC: 8 µg/mL (≈ 19.2 µM)
Enterococcus faecium; Enterococcus faecium (vanA) vancomycin resistant, strain TMS5
  MIC: 2 µg/mL (≈ 4.8 µM)
Enterococcus faecium; Enterococcus laecium (van B) vancomycin resistant, strain TMS6
  MIC: 32 µg/mL (≈ 76.9 µM)
Enterococcus faecium; Enterococcus laecium (van B) vancomycin resistant, strain TMS7
  MIC: 32 µg/mL (≈ 76.9 µM)
Pseudomonas aeruginosa
  MIC50: 2 µg/mL (≈ 4.8 µM)
  MIC90: > 64 µg/mL
Morganella morganii
  MIC Range: 0.063 to 32 µg/mL
Morganella morganii; read-out: MIC50
  MIC50: 0.25 µg/mL (≈ 0.6 µM)
Morganella morganii; read-out: MIC90
  MIC90: 1 µg/mL (≈ 2.4 µM)
Proteus mirabilis
  MIC50: 0.25 µg/mL (≈ 0.6 µM)
  MIC90: 16 µg/mL (≈ 38.4 µM)
Aeromonas spp. [2]
  MIC (mg/L) Range: ≤0.015 to 0.25 mg/L
Aeromonas spp. [2]; read-out: MIC (mg/L) 50%
  MIC: ≤ 0.015 mg/L
Aeromonas spp. [2]; read-out: MIC (mg/L) 90%
  MIC: 0.03 mg/L (≈ 0.0721 µM)
P. aeruginosa
  MIC: 1 µg/mL (≈ 2.4 µM)
Citrobacter freundii; Citrobacter freundii
  MIC50: 0.125 µg/mL (≈ 0.3 µM)
Citrobacter freundii; Citrobacter freundii (n=39)
  MIC90: 2 µg/mL (≈ 4.8 µM)
  MIC Range: ≤0.008 to 4 µg/mL
Proteus vulgaris; Proteus vulgaris
  MIC50: 0.125 µg/mL (≈ 0.3 µM)
Proteus vulgaris; Proteus vulgaris (n=25)
  MIC Range: 0.063 to 2 µg/mL
Proteus vulgaris; Proteus vulgaris (n=25), read-out: MIC90
  MIC90: 1 µg/mL (≈ 2.4 µM)
Shigella spp.
  MIC50: ≤ 0.008 µg/mL
  MIC90: 0.032 µg/mL (≈ 0.0769 µM)
  MIC Range: ≤0.008 to 0.032 µg/mL
[3]; [12]
  MIC Range: 0.032 to 8 µg/mL
  MIC50: 1 µg/mL (≈ 2.4 µM)
  MIC90: 2 µg/mL (≈ 4.8 µM)
[3]; [13]
  MIC Range: ≤0.008 to 2 µg/mL
  MIC50: 0.032 µg/mL (≈ 0.0769 µM)
  MIC90: 1 µg/mL (≈ 2.4 µM)
Aeromonas spp. [4]
  % Susceptible: 100%
  MIC50: ≤ 0.015 µg/mL
  MIC90: 0.03 µg/mL (≈ 0.0721 µM)
  MIC Range: ≤0.015 to 0.25 µg/mL
Escherichia coli; [14]
  MIC Range: ≤0.008 to 0.25 µg/mL
  MIC50: 0.016 µg/mL (≈ 0.0384 µM)
  MIC90: 0.032 µg/mL (≈ 0.0769 µM)
Escherichia coli; Escherichia coli ciprofloxacin resistant (n=5)
  MIC50: 64 µg/mL (≈ 154 µM)
Escherichia coli; Escherichia coli ciprofloxacin resistant (n=5), values marked *: MIC80 value
  MIC90: 64 µg/mL (≈ 154 µM)
Salmonella spp. [5]; S. hadar (n = 2)
  MIC: 0.5 µg/mL (≈ 1.2 µM)
Salmonella spp. [5]; S. newport (n = 1)
  MIC: 0.5 µg/mL (≈ 1.2 µM)
Salmonella spp. [5]; S. virchow (n = 2)
  MIC: 0.25 µg/mL (≈ 0.6 µM)
Salmonella spp. [5]; Salmonella spp. (n = 106)
  % Susceptible: 100%
  MIC50: 0.06 µg/mL (≈ 0.144 µM)
  MIC90: 0.25 µg/mL (≈ 0.6 µM)
  MIC Range: ≤0.015 to 1 µg/mL
Salmonella spp. [5]; Salmonella, S. tshiongwe (n = 1)
  MIC: 1 µg/mL (≈ 2.4 µM)
Moraxella catarrhalis
  MIC50: 0.016 µg/mL (≈ 0.0384 µM)
  MIC90: 0.031 µg/mL (≈ 0.0745 µM)
  MIC Range: 0.016 to 0.031 µg/mL
[6]; all (380) isolates tested (235 S. pneumoniae, 145 H. influenzae)
  MIC90: 0.12 µg/mL (≈ 0.288 µM)
[6]; all isolates tested (602)
  MIC90: 0.25 µg/mL (≈ 0.6 µM)
Staphylococcus aureus [7]; Methicillin-resistant (38)
  MIC Range: 0.031 to 16 µg/mL
Staphylococcus aureus [7]; Methicillin-susceptible (9)
  MIC Range: 0.031 to 0.5 µg/mL
Staphylococcus aureus [7]; Staphylococcus aureus, Methicillin-resistant (38)
  MIC90: 16 µg/mL (≈ 38.4 µM)
Staphylococcus aureus [7]; [15]
  MIC50: 0.031 µg/mL (≈ 0.0745 µM)
  MIC90: 0.5 µg/mL (≈ 1.2 µM)
Staphylococcus aureus [7]; Staphylococcus aureus, S. aureus KU2240, mutant type Wild (wild strain)
  MIC: 0.063 µg/mL (≈ 0.151 µM)
Staphylococcus aureus [7]; Staphylococcus aureus, S. aureus KU2241, mutant type NorA (efflux-mediated quinolone resistant)
  MIC: 0.063 µg/mL (≈ 0.151 µM)
Staphylococcus aureus [7]; Staphylococcus aureus, S. aureus KU2242, mutant type T (DNA topoisomerase IV)
  MIC: 0.25 µg/mL (≈ 0.6 µM)
Staphylococcus aureus [7]; Staphylococcus aureus, S. aureus KU2243, mutant type G+T (DNA gyrase and topoisomerase IV)
  MIC: 32 µg/mL (≈ 76.9 µM)
Staphylococcus aureus [7]; Staphylococcus aureus, S. aureus KU2244, mutant type G (DNA gyrase)
  MIC: 0.063 µg/mL (≈ 0.151 µM)
Staphylococcus aureus [7]; Staphylococcus aureus, S. aureus KU2246, mutant type T (DNA topoisomerase IV)
  MIC: 0.25 µg/mL (≈ 0.6 µM)
Salmonella spp. [8]
  MIC50: 0.032 µg/mL (≈ 0.0769 µM)
  MIC90: 0.063 µg/mL (≈ 0.151 µM)
  MIC Range: 0.016 to 0.063 µg/mL
[9]
  MIC90: 1 to 8 µg/mL (≈ 2.4 to 19.2 µM)
Streptococcus pyogenes; Streptococcus pyogenes
  MIC50: 0.125 µg/mL (≈ 0.3 µM)
Streptococcus pyogenes; Streptococcus pyogenes (n=51)
  MIC90: 0.5 µg/mL (≈ 1.2 µM)
  MIC Range: 0.063 to 0.5 µg/mL
Hafnia alvei; [16]
  MIC: 0.03 to 0.12 mg/L (≈ 0.0721 to 0.288 µM)
Hafnia alvei; read-out: MIC (mg/L) 50%
  MIC: 0.06 mg/L (≈ 0.144 µM)
Hafnia alvei; read-out: MIC (mg/L) 90%
  MIC: 0.06 mg/L (≈ 0.144 µM)
Haemophilus influenzae; [17]
  MIC50: ≤ 0.015 µg/mL
  MIC Range: ≤0.015 to 0.25 µg/mL
  MIC90: ≤ 0.015 µg/mL
Haemophilus influenzae; β-lactamase negative (234)
  MIC90: ≤ 0.015 µg/mL
Haemophilus influenzae; β-lactamase positive (66)
  MIC90: 0.03 µg/mL (≈ 0.0721 µM)
Klebsiella pneumoniae [10]; Klebsiella pneumoniae (n = 50)
  MIC Range: ≤0.0075 to 0.5 µg/mL
  MIC50: 0.06 µg/mL (≈ 0.144 µM)
  MIC90: 0.5 µg/mL (≈ 1.2 µM)
Klebsiella pneumoniae [10]; [18]
  MIC50: 0.06 µg/mL (≈ 0.144 µM)
  MIC90: 0.12 µg/mL (≈ 0.288 µM)
  MIC Range: ≤0.0075 to 0.015 µg/mL
Klebsiella pneumoniae [10]; [19]
  MIC50: 0.5 µg/mL (≈ 1.2 µM)
  MIC90: 0.5 µg/mL (≈ 1.2 µM)
  MIC Range: 0.06 to 0.5 µg/mL
Staphylococcus aureus [11]
  MIC Range: ≤0.03 to 2 µg/mL
Staphylococcus aureus [11]; read-out: MIC50
  MIC50: 0.06 µg/mL (≈ 0.144 µM)
Staphylococcus aureus [11]; read-out: MIC90
  MIC90: 0.125 µg/mL (≈ 0.3 µM)
Yersinia enterocolitica; [16]
  MIC: 0.015 to 0.25 mg/L (≈ 0.036 to 0.6 µM)
Yersinia enterocolitica; read-out: MIC (mg/L) 50%
  MIC: 0.06 mg/L (≈ 0.144 µM)
Yersinia enterocolitica; read-out: MIC (mg/L) 90%
  MIC: 0.06 mg/L (≈ 0.144 µM)
